Legend:
[1] = tested on: K562 cells; assay: Tyrosine-phosphorylated proteins in total cell lysates, K562; details: at the end of drug treatments
Experimental: The tyrosine-phosphorylated proteins in total cell lysates were examined at the end of drug treatments and then before their precipitous death.
Transfection and Immunoblotting. […] Immunoblots were performed using 1 μg/ml 4G10 monoclonal antibody against phosphotyrosine (Upstate Biotechnology, Waltham, Mass.), or 1 μg/ml monoclonal antibody against Abl (8E9) (Pharmingen, San Diego, Calif.).

[2] = tested on: K562 cells; assay: Cell survival assay, K562 cells; format: cell-based; details: 72 hours treatment, then drug removal
Experimental: […]. […] […].
After 48 h (TonB, TonB210) or 72 h (K562), live cells were counted with the Trypan blue exclusion assay. Cells were then washed extensively with PBS and placed in growth media. Trypan blue cell counts were repeated every 48 h and followed by feeding with fresh media. Cell counts were stopped when the number of viable cells was higher than the number of cells originally plated.

[3] = tested on: human leukemic cells; details: in vivo STI571 treatment; cited from earlier work
[4] = tested on: untransfected cells; assay: TUNEL assay, untransfected cells; format: cell-based; details: STI571 alone, BCR-Abl-NES experiment
Text: It is known that activation of the nuclear Abl tyrosine kinase by DNA damage can contribute to the induction of apoptosis (Gong et al., 1999; Wang, 2000). Similarly, when translocated into the nucleus, Bcr-Abl kinase can activate apoptosis. […]. […] However, removal of the inhibitor while maintaining the Bcr-Abl in the nucleus strongly stimulated apoptosis. […]. With this protocol, between 70–80% of the Bcr-Abl expressing cells were positive for TUNEL staining, whereas the apoptosis rate remained at the 10% level with untransfected cells (Table 2). By expressing Bcr-Abl-KD and treating cells with LMB alone, it was confirmed that an active nuclear Bcr-Abl kinase was required to induce apoptosis.
Cell Death Assays. […] […].

[5] = human, in vivo; cited from earlier work
[6] = tested on: Bcr-Abl-KD; assay: Nuclear localization by immunofluorescence in transfected Abl−/− fibroblasts (Bcr-Abl-KD); format: cell-based; details: LMB alone
[7] = human, in vivo; cited from earlier work; remark: listed apart in the source
[8] = tested on: TonB cells; details: 48 hours treatment, with IL-3

Row | SMILES | overall levels of tyrosine-phosphorylated proteins [1] | viable cell numbers [2] | tumors eradicated [3] | TUNEL-positive untransfected cells [4] [%] | maximum tolerated dose [5] | nuclear fraction of Bcr-Abl-KD [6] | toxicity observed in a phase I clinical trial [7] | viable cell numbers [8]
1 | Cc1ccc(NC(=O)c2ccc(CN3CCN(C)CC3)cc2)cc1Nc1nccc(-c2cccnc2)n1 [STI571, 4-[(4-methyl-piperazinyl)methyl]-N-[4-methyl-3-[[4-(3-pyrodnyl)-2-pyrimidinyl]amin]phenyl]benzamide methanesul-fonate] | decreased | initial death | 70–100% | 3 | No maximum tolerated dose has been identified | – | – | –
2 | CCC(=C/[C@H](C)C/C=C/C(C)=C/[C@@H](C)C(=O)[C@@H](C)[C@H](O)[C@@H](C)C/C(C)=C/C(=O)O)/C=C/[C@@H]1OC(=O)C=C[C@@H]1C [LMB, leptomycin B] | – | initial decline in cell number | – | – | – | 25–35% | neuronal toxicity | caused a reduction in cell numbers

Source: patent publication US7238525B2, “Strategy for leukemia therapy” (The Regents of the University of California, priority 2000, dated 2007)
